Assay results: paper PMC9258321, “Structure-guided design of CPPC-paired disulfide-rich peptide libraries for ligand and drug discovery” (Chemical Science, 2022)
Bridge positions count the residues as written; N and C are the ends. Square brackets hold non-standard residues; d marks the D form. Peptide text beside a SMILES is read from it. * marks the point of attachment. FITC = O=C1OC2(c3ccc(O)cc3Oc3cc(O)ccc32)c2ccc(NC(=S)*)cc21; βAla = NCCC(=O)O

Tests used:
CD28 = molecular target: T1, CD28 (Homo sapiens, UniProt P10747); experiment: Fluorescence polarization binding assay (saturation binding of FITC-drp8 to CD28); conditions: FP assay, same way as for oxidized FITC-drp8
T1 construct: purchased Sino Biological 11524-HCCH
T1 sequence (P10747 19-220): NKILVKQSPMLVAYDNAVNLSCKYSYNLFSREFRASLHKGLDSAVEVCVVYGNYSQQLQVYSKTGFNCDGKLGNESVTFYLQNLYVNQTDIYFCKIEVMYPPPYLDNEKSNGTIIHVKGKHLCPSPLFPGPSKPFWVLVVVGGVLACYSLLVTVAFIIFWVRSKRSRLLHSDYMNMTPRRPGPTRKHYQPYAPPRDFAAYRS
Source text: (§1) from 2% agarose gel (containing 0.005% v/v of 4S Red Plus Nucleic Acid Stain) used a commercial agarose gel purification kit (E.Z.N.A® Gel Extraction Kit, OMEGA BIO-TEK, USA). Then, Novogene Co., Ltd. was commissioned for sequence identification. The data were processed and analyzed using […]
(§2) All peptides were synthesized on a CEM Liberty Blue automated microwave peptide synthesizer by standard Fmoc solid-phase chemistry on a Rink Amide MBHA resin (0.025 mmol scale). Coupling reac-tions were performed with a Fmoc-AA-OH (5 eq., 0.2 M solution in DMF), DIC (5 eq., 0.25 M solution in DMF) and Oxyma Pure (5 eq., 1.0 M solution in DMF). […]
(§3) In a typical experiment, reduced peptide (50 μM) was dissolved in 100 mM phosphate buffer (500 μL, pH 7.4) containing 6 M Gu·HCl, 0.5 mM GSSG and 10% DMSO (v/v). […] After analyzed by MALDI-TOF MS, the oxidized peptide was purified and lyophilized to yield […]
(§4) Circular dichroism (CD) wavelength and temperature scans were recorded for thermal denaturation experiments. […] Wavelength scans from 190 nm to 260 nm were recorded at 25℃, 45℃, 75℃ and 95℃, and temperature were carried out at a heating rate of 5℃/min in 1 mm path length cuvettes.
(§5) Fluorescence polarization (FP) assay
(§6) (a) Fluorescence polarization binding assay. […]
min incubation at room temperature, the fluorescence anisotropies were measured using a plate reader (Eex= 485 nm, Eem=535 nm). […]

[1] = Circular dichroism (CD) thermal denaturation; assay type: physicochemical; conditions: CD 190-260 nm, 61 μM in pure water, scans at 25, 45, 75 and 95 °C; only a small decline of CD signals up to 95 °C; Fig. S7
Source text: as §1
as §2, with “DMF). Fmoc groups were removed using a 20% (v/v) solution of piperidine in DMF.” for “DMF).”
as §3, §4, §5, §6

Keap1 = molecular target: T2, Keap1 (Homo sapiens, UniProt Q14145); experiment: Surface plasmon resonance (SPR) assay, affinity of peptides to Keap1; assay type: binding; conditions: Biacore T200, 25 °C, biotinylated Keap1 on CAP chip, peptide 25-1600 nM, flow 30 μL/min, multi-cycle affinity method, oxidized, HPLC-purified peptide, read-out: equilibrium dissociation constant (KD) toward Keap1
T2 construct: another target (the Kelch domain of Keap1)
T2 sequence (Q14145 321-609 limits assumed, species assumed): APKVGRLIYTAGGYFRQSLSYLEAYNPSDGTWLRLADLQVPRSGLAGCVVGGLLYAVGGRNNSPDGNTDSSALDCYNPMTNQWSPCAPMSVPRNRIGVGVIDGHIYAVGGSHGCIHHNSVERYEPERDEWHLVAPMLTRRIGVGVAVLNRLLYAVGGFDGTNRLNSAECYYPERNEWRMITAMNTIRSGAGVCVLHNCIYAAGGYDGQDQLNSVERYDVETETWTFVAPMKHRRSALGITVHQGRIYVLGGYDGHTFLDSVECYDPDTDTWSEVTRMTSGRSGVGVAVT
Description: Surface plasmon resonance (SPR) assay
The affinity of peptides to Keap1 was measured using Biacore T200 (GE healthcare) at 25℃. At first, Keap1 was linked to a Biacore CAP chip via the interaction of biotin and avidin (Biotinylation of Keap1 occurs through the preceding reaction, Biacore CAP chip was performed through a Biotin CAPture Kit (GE healthcare)). Then, different concentrations of peptides were used in experiment (25, 50, 100, 200, 400, 800, 1600 nM) at a flow rate of 30 μL/min. The binding affinity and kinetics constants were quanti-fied by a multi-cycle affinity method.
NMR samples were dissolved in 80% perdeuterated acetonitrile and 20% H2O for drp1, 75% perdeu-terated acetonitrile and […] for drp2-a, 60% perdeuterated acetonitrile and 40% H2O for drp8, 50% perdeuterated acetonitrile and 50% H2O for drp3 and drp6, 40% perdeuterated acetonitrile and 60% H2O for drp2-b and drp4 (The solution conditions depend on the dispersion of cross -peaks). All of NMR samples were prepared in a final concentration of about 1 mM. […] Two dimensional (2D) 1H, 15N/13C HSQC spectra were recorded to obtain chemical shifts of heavy atoms in backbone and side-chains. […]
The backbone dihedral angle restraints were obtained using programs TALOS -N based on chemical shifts of backbone resonances6. […] The structures were visualized in PyMol, and the quality of structures was analyzed using PROCHECK 9. […]

MDM2 = experiment: Fluorescence polarization (FP) competition assay, binding to MDM2; conditions: FP competition assay described previously (ref 32 method); oxidized products; Fig. S3
Source text: The most abundantly enriched sequences from both selections were then synthesized, and their oxidative folding in redox buffers were examined using HPLC. Oxidation of the MDM2-binding peptide (drp2) yields two products (drp2-a and drp2-b) in a ratio of ∼1 : 3 (Fig. 2c). […] The structures of the two products were then characterized using NMR (Fig. 2c; PDB 7W8O and 7W8R). Both products can maintain a stable, but different 3D structure with a conserved α-helix responsible for target recognition, corresponding to the parallel and antiparallel dimeric pairing of the two CPPC motifs in the peptide (drp2-a and drp2-b, respectively). […]
min incubation at room temperature, the fluorescence anisotropies were measured using a plate reader (Eex= 485 nm, Eem=535 nm). All of the measurements were recorded in triplicate. In the fluorescence polarization assay s measuring the binding of reduced FITC-drp8 to CD28 and the binding of oxidized FITC-drp8 to CTLA-4, the fluorescence anisotrop ies were recorded in the same way as described above.
Dissociation constants ( KD) were determined by nonlinear regression analysis of anisotrop ies versus the concentrations of the protein using the following equation: […]
(b) Competition fluorescence polarization assay. The binding of drp8 to CD28 was measured by adding dilutions of drp8 to premixed oxidized FITC-drp8 and CD28 in PBS (pH 7.4). […]

For “{FITC}-[βAla]GCPPCPREHELVAVPCEGLNNCWFVEACPPC-NH2 (cysteine pairing not given here) [reduced drp8, reduced form of fluorescein-labeled drp8]”, the “binding of reduced labeled peptide to CD28 (in words)” value (CD28) was “negligible”.

For “H-SCPPCHGRPTCTKPGDNATPEKLAKYQACWELLTCPPC-OH (also: bicyclic or more (positions not given here)) [drp4, drp1 grafted with loop-α-helix fold of PPα-Tyr; recombinantly produced in E. coli as SUMO fusion]”, the “thermal stability of the 3D structure (CD signal)” value [1] was “extremely stable to thermal treatment”.

Compound `CC[C@H](C)[C@@H]1NC(=O)[C@H](CCC(=O)O)NC(=O)[C@@H]2CSSC[C@H](NC(=O)[C@H](CO)NC(=O)[C@H](CO)NC(=O)[C@H](C(C)C)NC(=O)[C@H](CCC(=O)O)NC(=O)[C@H](CCSC)NC(=O)[C@@H]3CSSC[C@H](NC(=O)[C@H](CCCNC(=N)N)NC(=O)[C@H](CO)NC(=O)CNC1=O)C(=O)N1CCC[C@H]1C(=O)N1CCC[C@H]1C(=O)N[C@H](C(N)=O)CSSC[C@H](NC(=O)[C@@H](N)Cc1c[nH]c4ccccc14)C(=O)N1CCC[C@H]1C(=O)N1CCC[C@H]1C(=O)N3)C(=O)N[C@@H](CC(=O)O)C(=O)N[C@@H](CCC(=O)O)C(=O)N[C@@H](CCC(=O)O)C(=O)N[C@@H]([C@@H](C)O)C(=O)NCC(=O)N[C@@H](CCC(=O)O)C(=O)N2` [drp6] (H-WCPPCMEVSSCDEETGECEIGSRCPPC-NH2; disulfide 2-27, 5-24, 11-18) has a Kd (Keap1) of 47 nM.

With “H-GCPPCESCHSGESTFWCYWEALCPPC-NH2 (also: bicyclic or more (positions not given here)) [drp2-a, oxidized product of drp2]” the “affinity to MDM2 (in words)” value (MDM2) was “subnanomolar affinity”.
